# Ends that are not written are not given here.
# Assays:
# B16 cells [1] = test: MTT assay for B16 cell survival; type: cell-based; settings: B16 cells cultured overnight with F1/F3 at 0-20 μg/mL, MTT kit
# Protocol: (§1) • 1. An MTT assay was used to detect cell survival condition: 7×10^4 B16 cells per well were cultured overnight with F1/F3 at different concentrations (0, 6, 8, 10, 12, 14, 16, 18, 20 μg/mL) in 4 duplicate wells, and the cell survival condition was detected by using an MTT kit (a product number: C0009M) and an IC50 value was calculated by drawing. Latest results of two independent experiments were shown. • 2. Detection of cell apoptosis: it was divided into a test group and a control group, and the B16 cells were cultured with a complete medium (composed of 1640 basic medium+fetal bovine serum from South American+double antibody (mixed with penicillin and streptomycin at a ratio of 1:1) at a volume ratio of 90:9:1), where Caerin 1.1/Caerin 1.9 was added to the test group with a final concentration of 10 μg/mL, and P3 was added to the control group with a same final concentration of 10 μg/mL. The cells were cultured overnight in a 5% CO2 incubator at 37° C., and their apoptosis conditions were detected by an apoptosis kit (an Annexin V-EGFP apoptosis detection kit, with a product number: C1067M). II. Experimental Results: • 1. In FIG. 1, A represented the cell survival condition at different concentrations, and B represented a calculated survival rate. […] In FIG. 2, A was a cell apoptosis distribution diagram, and B was a statistical analysis result.
# B16 cells [2] = test: Apoptosis detection (Annexin V-EGFP kit) in B16 cells; type: cell-based; settings: 10 μg/mL, cultured overnight, versus P3 control
# Protocol: as §1
# B16 cells [3] = test: In vivo B16 tumor model, intratumoral injection: survival time and tumor weight; parameters: species or system C57BL/6 mice; settings: 30 μg injected daily for 7 days from DAY 3; alone
# Protocol: • 1. Experiment objects: 12 C57BL/6 mice were divided into 3 groups with 4 mice in each group. • 2. Experiment method: • 2.1 Detection of tumor weight: A. Each C57BL/6 mouse was subcutaneously inoculated with 4×10^5 B16 cells, and time of tumor bearing was recorded as DAY 0. On DAY 3, the three groups were respectively injected with 100 μL of PBS solution containing 30 μg of F1/F3 (i.e., Caerin 1.1/Caerin 1.9), 100 μL of PBS solution containing 30 μg of P3, and 100 μL of PBS solution for the negative control group every day, administered for 7 consecutive days; B. a modeling method was the same as above, there were 8 mouse in each group, which were killed at DAY 13, and the tumor was taken and weighed. • 2.2 Detection of cell activity: The experimental process was the same as that in 2.1, tumor tissues were taken and treated into single cell suspensions on DAY 13 for flow staining and detected by using a flow cytometer, and selected flow antibodies were as follows: FITC-CD45.2, APC-cy7-CD3e, Percp-cy5.5-CD4, PE-cy7-CD8a, APC-cy7-B220, PE-NK1.1, PE-F4/80, Percp-cy5.5-CD11b, and FVS510 dye. […]
# B16 cells [4] = test: Flow cytometry of tumor-infiltrating immune cells after F1/F3 injection; type: in vivo, C57BL/6 mice; settings: DAY 13, flow cytometry
# Protocol: • 1. Experiment objects: 12 C57BL/6 mice were divided into 3 groups with 4 mice in each group. • 2. Experiment method: • 2.1 Detection of tumor weight: A. Each C57BL/6 mouse was subcutaneously inoculated with 4×10^5 B16 cells, and time of tumor bearing was recorded as DAY 0. On DAY 3, the three groups were respectively injected with 100 μL of PBS solution containing 30 μg of F1/F3 (i.e., Caerin 1.1/Caerin 1.9), 100 μL of PBS solution containing 30 μg of P3, and 100 μL of PBS solution for the negative control group every day, administered for 7 consecutive days; B. a modeling method was the same as above, there were 8 mouse in each group, which were killed at DAY 13, and the tumor was taken and weighed. • 2.2 Detection of cell activity: The experimental process was the same as that in 2.1, tumor tissues were taken and treated into single cell suspensions on DAY 13 for flow staining and detected by using a flow cytometer, and selected flow antibodies were as follows: FITC-CD45.2, APC-cy7-CD3e, Percp-cy5.5-CD4, PE-cy7-CD8a, APC-cy7-B220, PE-NK1.1, PE-F4/80, Percp-cy5.5-CD11b, and FVS510 dye. Changes of macrophage subtypes were detected, tumor tissues were taken and treated into single cell suspensions on DAY 13 for flow staining and detected by using the flow cytometer, and selected flow antibodies were as follows: FITC-CD45.2, PE-F4/80, Percp-cy5.5-CD11b, BV421-Ly6C, and FVS510 dye. • 3. In FIG. 3, A was the survival time of Caerin 1.1/Caerin 1.9 for combined treatment of melanoma-bearing mice, and B was weighted data of tumor size of each group.
# B16 cells [5] = test: MDSC and macrophage proportions in B16 tumor tissue by flow cytometry; type: in vivo, C57BL/6 mice; settings: 30 μg F1/F3 daily for 7 days, tumor DAY 13, versus PBS
# Protocol: (§2) • 1. Experiment objects: 6 C57BL/6 mice were divided into 2 groups with 3 mice in each group. • 2. Experimental process: Each C57BL/6 mouse was subcutaneously inoculated with 4×10^5 B16 cells, and time of tumor bearing was recorded as DAY 0. The two groups were injected with 100 μL of PBS solution containing 30 μg of F1/F3 (i.e., Caerin 1.1/Caerin 1.9) respectively on DAY 3; and the negative control group was injected with 100 μL of PBS solution every day for consecutive 7 days. B16 tumor tissues were taken and treated into single cell suspensions on DAY 13 for flow staining and detected by using a flow cytometer. Selected antibodies were as follows: FITC-CD45.2, Percp-cy5.5-CD11b, APC-Ly6G, BV421-Ly6c, FVS510 dye, and PE-F4/80. A modeling method was the same as above, splenic organs of mice were taken and processed into single cell suspensions on DAY 13, m-MDSC was sorted by using a flow cytometer, and four groups were set up: a PBS group, a PBS+GMCSF group, an F(F1/F3) group, and an F(F1/F3)+GMCSF group. The sorted cells were counted, each group was provided with two multiple wells, with 100,000 cells each well, 10 ng/ml of GMCSF was added to each group, and after three days of stimulating culture, the cells were detected by using the flow cytometer. Selected antibodies were as follows: FITC-CD45.2, Percp-cy5.5-CD11b, APC-Ly6G, BV421-Ly6c, FVS510 dye, and PE-F4/80. • 3. […]
# m-MDSC = test: Sorted splenic m-MDSC, in vitro GMCSF stimulation culture; type: cell-based, C57BL/6 mice; settings: 10 ng/ml GMCSF, three days culture, compared with the PBS group
# Protocol: as §2
# [6] = CD47 and SIRPα expression in B16 tumor tissue by flow cytometry; type: in vivo, C57BL/6 mice; settings: DAY 13, flow cytometry
# Protocol: (§3) • 1. Experiment objects: 21 C57BL/6 mice were divided into 3 groups with 7 mice in each group. • 2. Experiment method: A modeling method was the same as that in Experiment example 3, the experiment was divided into a PBS group, a P3 group and an F1/F3 group, tumor tissues were taken and treated into single cell suspensions on DAY 13 for flow staining and detected by using a flow cytometer, two experiments were carried out continuously, and flow antibodies were selected as follows: FITC-CD45.2, FVS510 dye, and BV421-CD47. • 3. Experimental results: This is a summary of results of two independent experiments, and the specific experimental results were shown in FIG. 9.
# CD47 = test: as above; type: in vivo, C57BL/6 mice; settings: DAY 13, flow cytometry
# Protocol: as §3
# B16 cells [7] = test: F1/F3 treatment of nude mice bearing tumor model; type: in vivo; settings: 30 μg intratumoral for 7 days from DAY 3
substance,measurement,setting,value
"Caerin 1.1/Caerin 1.9: Caerin 1.1 and Caerin 1.9 polypeptides used together, mass ratio 1:1 (chain 1 GLLSVLGSVAKHVLPHVLPHVVPVIAEHL-NH2; chain 2 GLFGVLGSIAKHVLPHVVPVIAEKL-NH2; not fully specified; ends and bridges not checked)","IC50 (IC50 half lethal dose), cell survival",B16 cells [1],11.76 µg/mL
same,apoptosis of B16 cells,B16 cells [2],significant apoptosis-inducing effect
same,"tumor growth in vivo (survival time, tumor weight)",B16 cells [3],effectively inhibit tumor growth
same,number of tissue-resident macrophages for inhibiting tumor immunity,B16 cells [4],decreased
same,expression of INFα receptors in macrophages,B16 cells [4]; tumor tissue,increased
same,number of CD8+T cells and CD4+T cells,B16 cells [4]; tumor tissue,increased
same,number of inflammatory macrophages for promoting tumor immunity,B16 cells [4]; tumor tissue,increased
same,number of macrophages,B16 cells [4]; tumor tissue,increased
same,"proportion of MDSC, m-MDSC and PMN-MDSC",B16 cells [5],tended to decrease
same,proportion of tumor macrophages in CD45.2+ cells,B16 cells [5],rising trend
same,macrophages after GMCSF stimulus differentiation of splenic m-MDSC,m-MDSC,more macrophages
same,expression of SIRPα on macrophages,[6],decreased
same,expression of CD47 on tumor cells,CD47,increased obviously
same,survival time of tumor-bearing nude mice,B16 cells [7],significantly prolonged
